pIC50: −log10 of the molar value. ≈ marks a conversion by molar mass, not a printed value.
How the values were obtained:
[1] = system: Mycobacterium tuberculosis; experiment: Antibacterial activity against Mycobacterium tuberculosis H37Rv ATCC 27294 after 7 days by resazurin microtiter assay; type: functional; conditions: H37Rv ATCC 27294, 168 h
[2] = system: MRC5; experiment: Cytotoxicity against human MRC5 cells after 24 hrs by resazurin dye-based fluorescence assay; type: cell-based; conditions: MRC5, 24 h
[3] = system: J774.A1; experiment: Cytotoxicity against mouse J774A.1 cells after 24 hrs by resazurin dye-based fluorescence assay; type: cell-based; conditions: J774.A1, 24 h
[4] = Selectivity index, ratio of IC50 for mouse J774A.1 cells to MIC90 for Mycobacterium tuberculosis H37Rv ATCC 27294; type: toxicity; conditions: read-out: Selectivity Index
[5] = Selectivity index, ratio of IC50 for human MRC5 cells to MIC90 for Mycobacterium tuberculosis H37Rv ATCC 27294; type: toxicity; conditions: read-out: Selectivity Index

CCOC(=O)c1c(C)oc2nc(N3CCN(c4ccccc4)CC3)ccc12
MIC90 [1]: > 68.5 µM

CCOC(=O)c1c(C(C)C)oc2nc(N3CCOCC3)ccc12
MIC90 [1]: > 78.5 µM

CCOC(=O)c1c(C)oc2nc(N3CC[C@@H](F)C3)ccc12
MIC90 [1]: > 85.6 µM | pIC50 [2]: < 3.47

CC(C)c1oc2nc(N3CCCC3)ccc2c1C(=O)O
MIC90 [1]: > 91.1 µM

CCOC(=O)c1c(C(C)C)oc2nc(N3CCN(c4ccc(Cl)cc4)CC3)ccc12
MIC90 [1]: > 58.5 µM

CNC(=O)c1c(-c2ccc(O)cc2)oc2ccc(O)c(CN3CCCCC3)c12
MIC90 [1]: 0.09 µM (≈ 0.0342 µg/mL)

CCOC(=O)c1c(-c2ccccc2)oc2nc(N3CCCC3)ccc12
MIC90 [1]: > 74.4 µM | pIC50 [2]: < 3.53

CCOC(=O)c1c(C(C)C)oc2nccc(N3CCOCC3)c12
MIC90 [1]: > 78.5 µM | pIC50 [3]: 3.67

CCOC(=O)c1c(-c2ccccc2)oc2ncc(N3CCCC3)cc12
MIC90 [1]: > 74.4 µM | pIC50 [2]: < 3.53

CCOC(=O)c1c(C(C)C)oc2nc(N3CCN(c4ccccc4)CC3)ccc12
MIC90 [1]: > 63.6 µM

CNC(=O)c1c(C)oc2nc(N3CCCC3)ccc12
MIC90 [1]: > 96.4 µM

CCOC(=O)c1c(C)oc2nccc(N3CCN(c4ccccc4)CC3)c12
MIC90 [1]: > 68.5 µM | pIC50 [3]: 3.92

CCOC(=O)c1c(C)oc2nccc(N3CCOCC3)c12
MIC90 [1]: > 86.1 µM | pIC50 [3]: < 3.50

CCOC(=O)c1c(C(C)C)oc2nccc(N3CCN(c4ccc(Cl)cc4)CC3)c12
MIC90 [1]: > 58.5 µM | pIC50 [3]: < 3.63

CCOC(=O)c1c(C)oc2nc(N3CCCC3)ccc12
selectivity ratio [4]: 18.7 | MIC90 [1]: 10.5 µM (≈ 2.88 µg/mL) | pIC50 [3]: 3.71 | pIC50 [2]: < 3.44 | selectivity ratio [5]: > 34.7

CCOC(=O)c1c(C)oc2nc(N3CCOCC3)ccc12
MIC90 [1]: > 86.1 µM

CNC(=O)c1c(C(C)C)oc2nc(N3CCCC3)ccc12
MIC90 [1]: > 87 µM

CCOC(=O)c1c(C)oc2ncc(N3CCCC3)cc12
selectivity ratio [4]: 3.2 | MIC90 [1]: 82.3 µM (≈ 22.6 µg/mL) | pIC50 [3]: 3.59 | pIC50 [2]: < 3.44 | selectivity ratio [5]: > 4.4

CCCSc1cnc2oc(C(C)C)c(C(=O)OCC)c2c1
MIC90 [1]: > 81.3 µM

CCOC(=O)c1c(C(C)C)oc2nc(N3CCCC3)ccc12
selectivity ratio [4]: > 10.1 | MIC90 [1]: 32.8 µM (≈ 9.92 µg/mL) | pIC50 [3]: < 3.48 | pIC50 [2]: < 3.48 | selectivity ratio [5]: > 10.1

CCOC(=O)c1c(C(C)C)oc2nccc(N3CCN(c4ccccc4)CC3)c12
MIC90 [1]: > 63.6 µM | pIC50 [3]: 3.63

CCOC(=O)c1c(C)oc2ncc(N3CC[C@@H](F)C3)cc12
MIC90 [1]: > 85.6 µM | pIC50 [2]: < 3.47

CCCCNc1cnc2oc(C(C)C)c(C(=O)OCC)c2c1
MIC90 [1]: > 82.1 µM

CCCSc1ccc2c(C(=O)OCC)c(C(C)C)oc2n1
MIC90 [1]: > 81.3 µM

Cc1oc2nc(N3CCCC3)ccc2c1C(=O)O
MIC90 [1]: > 102 µM

CCCCNc1ccc2c(C(=O)OCC)c(C(C)C)oc2n1
selectivity ratio [4]: > 14.2 | MIC90 [1]: 23.2 µM (≈ 7.06 µg/mL) | pIC50 [3]: < 3.48 | pIC50 [2]: < 3.48 | selectivity ratio [5]: > 14.2

NCC[C@H](O)C(=O)N[C@@H]1C[C@H](N)[C@@H](O[C@H]2O[C@H](CN)[C@@H](O)[C@H](O)[C@H]2O)[C@H](O)[C@H]1O[C@H]1O[C@H](CO)[C@@H](O)[C@H](N)[C@H]1O [AMIKACIN]
MIC90 [1]: 0.4 µM (≈ 0.234 µg/mL)

N[C@@H]1CONC1=O [CYCLOSERINE]
MIC90 [1]: 37.1 µM (≈ 3.79 µg/mL)

CC[C@@H](CO)NCCN[C@@H](CC)CO [ETHAMBUTOL]
MIC90 [1]: 7 µM (≈ 1.43 µg/mL)

NNC(=O)c1ccncc1 [ISONIAZID]
MIC90 [1]: 0.8 µM (≈ 0.11 µg/mL)

COc1c(N2C[C@@H]3CCCN[C@@H]3C2)c(F)cc2c(=O)c(C(=O)O)cn(C3CC3)c12 [MOXIFLOXACIN]
MIC90 [1]: < 0.2 µM

CO[C@H]1/C=C/O[C@@]2(C)Oc3c(C)c(O)c4c(O)c(c(/C=N/N5CCN(C)CC5)c(O)c4c3C2=O)NC(=O)/C(C)=C\C=C\[C@H](C)[C@H](O)[C@@H](C)[C@@H](O)[C@@H](C)[C@H](OC(C)=O)[C@@H]1C [RIFAMPIN]
MIC90 [1]: 0.06 µM (≈ 0.0494 µg/mL)

— ChEMBL document CHEMBL4400559, “Exploiting the furo[2,3-b]pyridine core against multidrug-resistant Mycobacterium tuberculosis” (Bioorg Med Chem Lett, 2019)
